Key:
SKBR-3 cells [1] = test: Membrane compactness, generalized polarization of Laurdan; type: cell-based; conditions: atorvastatin 72 h, 2 μM Laurdan
[2] = system: HMG-CoA reductase expression in MDA-MD-231 cells; conditions: atorvastatin at a micromolar concentration, ref [57]; cited from earlier work
SKBR-3 cells [3] = test: Flow cytometric measurement of penetratin uptake and endo-lysosomal release; type: cell-based; conditions: atorvastatin 100 nM and 10 μM, 72 h pre-treatment, versus control
[4] = system: HMG-CoA reductase expression in SKBR-3 cells; conditions: atorvastatin at a micromolar concentration, ref [57]; cited from earlier work
MDA-MB-231 cells = test: Membrane fluidity, fluorescence anisotropy of TMA-DPH; type: cell-based; conditions: atorvastatin 72 h

For `CC(C)c1c(C(=O)Nc2ccccc2)c(-c2ccccc2)c(-c2ccc(F)cc2)n1CC[C@@H](O)C[C@@H](O)CC(=O)O` [atorvastatin], the “effect on membrane compactness (generalized polarization of Laurdan)” value (SKBR-3 cells [1]) is listed as “decrease”, the “change in HMG-CoA reductase enzyme expression” value [2] is listed as “no change” and the “amount of penetratin leaving the endo-lysosomal compartment” value (SKBR-3 cells [3]) is listed as “significantly higher”. For the same compound, the “induction of HMG-CoA reductase expression” value [4] was 4 fold and the “effect on membrane microviscosity (TMA-DPH anisotropy)” value (MDA-MB-231 cells) was “unexpected increase”.

Reference: paper doi:10.1101/2020.08.04.236984v1 (bioRxiv, 2020)
